Values quoted from earlier work as cited in patent US20230265432A1, “METHODS AND COMPOSITIONS FOR TREATING ACUTE MYELOID LEUKEMIA” (Sanford Burnham Prebys Medical Discovery Institute, priority 2021, published 2023).
Counter-ions that a name gives are not always drawn. Like-named read-outs stand apart in the source and are kept apart here.

Assays:
[1] = target: JMJD2B (Homo sapiens, UniProt O94953); details: cited from earlier work
[2] = target: JMJD2A (Homo sapiens, UniProt O75164); details: cited from earlier work
[3] = test system: neuroblastoma tumor; details: 200 mg/kg; cited from earlier work
[4] = test system: HDAC activity in HeLa cell nuclear lysates; details: cited from earlier work
[5] = test system: MCF-7 cells; details: cited from earlier work
[6] = target: nuclear receptor coactivator 3 (Homo sapiens, UniProt Q9Y6Q9); details: cited from earlier work
[7] = test system: U937 leukemia cell line; details: proliferation; cited from earlier work
[8] = test system: HT29; details: cited from earlier work
[9] = test system: SK-BR-3 breast-derived cell line; details: proliferation; cited from earlier work
[10] = target: MLL core complex (Homo sapiens, UniProt P61964); details: in vitro; cited from earlier work
[11] = target: WDR5 (Homo sapiens, UniProt P61964); details: cited from earlier work
[12] = target: EZH2 (Homo sapiens, UniProt Q15910); details: cited from earlier work
[13] = test system: trimethylation of H3K27 in HCC1806 cells; details: cited from earlier work
[14] = test system: H3K27methylation in MCF10A cells; details: cited from earlier work
[15] = test system: quinone reductase-1; details: in mouse hepatoma cells; cited from earlier work
[16] = target: HDAC8 (Homo sapiens, UniProt Q9BY41); details: cited from earlier work
[17] = test system: metastatic breast cancer MDA-MB 231 cell; details: cited from earlier work
[18] = target: T1, SIRT1 (Homo sapiens, UniProt Q96EB6); details: cited from earlier work
T1 sequence (Q96EB6 1-747): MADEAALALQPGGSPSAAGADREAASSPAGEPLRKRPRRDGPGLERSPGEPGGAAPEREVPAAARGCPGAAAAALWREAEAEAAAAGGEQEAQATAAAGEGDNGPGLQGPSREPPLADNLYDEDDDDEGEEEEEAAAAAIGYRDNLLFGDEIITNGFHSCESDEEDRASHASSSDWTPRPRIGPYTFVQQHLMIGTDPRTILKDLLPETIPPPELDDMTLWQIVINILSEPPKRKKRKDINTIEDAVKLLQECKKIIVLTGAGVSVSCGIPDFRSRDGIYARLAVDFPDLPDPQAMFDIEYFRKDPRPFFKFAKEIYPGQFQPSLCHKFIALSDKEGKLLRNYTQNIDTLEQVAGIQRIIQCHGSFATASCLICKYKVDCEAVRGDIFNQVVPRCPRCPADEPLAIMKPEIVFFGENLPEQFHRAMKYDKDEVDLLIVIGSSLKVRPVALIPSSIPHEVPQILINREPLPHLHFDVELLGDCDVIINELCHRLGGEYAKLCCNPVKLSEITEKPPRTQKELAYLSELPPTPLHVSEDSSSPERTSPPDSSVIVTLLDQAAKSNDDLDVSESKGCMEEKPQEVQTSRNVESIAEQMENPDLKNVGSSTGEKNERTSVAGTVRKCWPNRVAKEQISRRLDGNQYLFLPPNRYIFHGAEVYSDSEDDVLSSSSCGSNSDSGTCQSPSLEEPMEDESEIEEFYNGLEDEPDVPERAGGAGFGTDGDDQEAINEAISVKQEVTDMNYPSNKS

[19] = target: G9a and GLP methyltransferases; details: competitive with H3K9 substrates; cited from earlier work
[20] = test system: H3K9 dimethylation levels in PANC-1 cells; details: cited from earlier work
[21] = test system: H3K9 dimethylation in MDA-MB231 cells; details: cited from earlier work
[22] = test system: trimethylation of the PRC2 target H3K27; details: cited from earlier work
[23] = target: SIRT5 (Homo sapiens, UniProt Q9NXA8); details: cited from earlier work
[24] = target: UTX (Homo sapiens, UniProt O15550); details: as measured by mass spectrometry; cited from earlier work
[25] = target: BRD4 (Homo sapiens, UniProt O60885); details: cited from earlier work
[26] = target: CBP (Homo sapiens, UniProt Q92793); details: cited from earlier work
[27] = test system: RhoA/C-mediated, SRF-driven luciferase expression in PCS prostate cancer cells; details: cited from earlier work
[28] = target: GLP (Homo sapiens, UniProt Q9H9B1); details: cited from earlier work
[29] = test system: HCT116; details: proliferation; cited from earlier work
[30] = test system: Colo205; details: proliferation; cited from earlier work
[31] = target: REV-ERBa (Homo sapiens, UniProt P20393); details: agonist; cited from earlier work
[32] = target: PAD1 (Homo sapiens, UniProt Q9ULC6); details: cited from earlier work
[33] = test system: HL-60; details: cytotoxic; cited from earlier work
[34] = target: PAD3 (Homo sapiens, UniProt Q9ULW8); details: cited from earlier work
[35] = target: yeast Hmt1p (Saccharomyces cerevisiae, UniProt P38074); details: cited from earlier work
[36] = target: T2, HIV-1 reverse transcriptase (Human immunodeficiency virus type 1 group M subtype B, UniProt P04585); details: cited from earlier work
T2 construct: HIV-1 reverse transcriptase

Chain of EZH2 (Q15910 whole entry, species assumed): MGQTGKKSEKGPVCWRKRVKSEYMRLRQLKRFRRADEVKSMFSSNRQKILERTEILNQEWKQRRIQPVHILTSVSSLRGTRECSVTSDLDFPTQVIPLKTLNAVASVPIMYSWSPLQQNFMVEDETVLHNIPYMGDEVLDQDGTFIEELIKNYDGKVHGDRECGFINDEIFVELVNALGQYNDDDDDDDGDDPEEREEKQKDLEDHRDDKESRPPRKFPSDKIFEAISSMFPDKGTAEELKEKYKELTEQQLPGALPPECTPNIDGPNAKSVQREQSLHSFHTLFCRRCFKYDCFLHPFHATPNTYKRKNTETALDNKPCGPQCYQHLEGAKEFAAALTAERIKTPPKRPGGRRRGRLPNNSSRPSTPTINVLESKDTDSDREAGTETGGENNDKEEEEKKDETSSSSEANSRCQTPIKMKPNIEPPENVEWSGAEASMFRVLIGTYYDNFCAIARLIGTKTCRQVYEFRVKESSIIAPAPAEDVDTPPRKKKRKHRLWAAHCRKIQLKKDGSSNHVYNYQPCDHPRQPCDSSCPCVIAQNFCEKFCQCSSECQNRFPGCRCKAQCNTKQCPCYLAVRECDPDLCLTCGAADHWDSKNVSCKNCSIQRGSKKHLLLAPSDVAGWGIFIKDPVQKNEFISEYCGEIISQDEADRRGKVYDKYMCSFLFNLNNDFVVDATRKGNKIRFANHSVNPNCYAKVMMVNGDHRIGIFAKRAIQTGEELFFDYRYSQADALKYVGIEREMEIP
Chain of GLP (Q9H9B1 whole entry): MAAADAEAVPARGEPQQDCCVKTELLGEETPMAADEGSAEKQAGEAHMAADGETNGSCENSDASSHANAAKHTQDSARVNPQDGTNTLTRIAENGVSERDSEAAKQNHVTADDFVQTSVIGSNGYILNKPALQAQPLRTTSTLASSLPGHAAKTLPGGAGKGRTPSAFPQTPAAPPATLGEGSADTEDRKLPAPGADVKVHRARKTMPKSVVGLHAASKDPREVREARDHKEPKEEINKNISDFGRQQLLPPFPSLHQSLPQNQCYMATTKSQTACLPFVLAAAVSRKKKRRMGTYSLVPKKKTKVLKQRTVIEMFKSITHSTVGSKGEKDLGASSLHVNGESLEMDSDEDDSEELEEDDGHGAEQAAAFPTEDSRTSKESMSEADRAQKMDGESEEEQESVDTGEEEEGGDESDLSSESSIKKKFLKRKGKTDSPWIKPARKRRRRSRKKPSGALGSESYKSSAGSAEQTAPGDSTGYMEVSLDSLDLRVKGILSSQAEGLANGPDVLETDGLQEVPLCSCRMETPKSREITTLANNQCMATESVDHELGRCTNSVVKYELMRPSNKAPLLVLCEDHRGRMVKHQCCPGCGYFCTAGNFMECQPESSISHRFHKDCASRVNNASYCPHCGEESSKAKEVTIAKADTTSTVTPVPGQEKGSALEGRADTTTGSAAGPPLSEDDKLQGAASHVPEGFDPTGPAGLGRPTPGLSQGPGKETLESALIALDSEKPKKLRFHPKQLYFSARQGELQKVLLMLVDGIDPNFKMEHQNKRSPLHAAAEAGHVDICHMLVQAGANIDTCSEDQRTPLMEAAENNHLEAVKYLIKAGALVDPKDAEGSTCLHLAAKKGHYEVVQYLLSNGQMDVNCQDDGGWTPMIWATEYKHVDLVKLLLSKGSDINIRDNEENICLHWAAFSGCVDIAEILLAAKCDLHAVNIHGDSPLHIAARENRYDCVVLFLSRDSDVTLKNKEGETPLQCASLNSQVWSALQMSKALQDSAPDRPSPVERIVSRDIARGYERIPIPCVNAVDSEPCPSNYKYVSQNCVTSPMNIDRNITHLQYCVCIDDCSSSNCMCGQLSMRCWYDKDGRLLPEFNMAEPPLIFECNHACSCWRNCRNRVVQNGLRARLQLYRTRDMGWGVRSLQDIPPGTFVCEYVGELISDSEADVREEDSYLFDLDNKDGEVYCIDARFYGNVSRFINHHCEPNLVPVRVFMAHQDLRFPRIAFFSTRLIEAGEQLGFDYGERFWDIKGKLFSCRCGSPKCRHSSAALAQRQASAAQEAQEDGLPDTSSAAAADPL
Chain of JMJD2A (O75164 whole entry, species assumed): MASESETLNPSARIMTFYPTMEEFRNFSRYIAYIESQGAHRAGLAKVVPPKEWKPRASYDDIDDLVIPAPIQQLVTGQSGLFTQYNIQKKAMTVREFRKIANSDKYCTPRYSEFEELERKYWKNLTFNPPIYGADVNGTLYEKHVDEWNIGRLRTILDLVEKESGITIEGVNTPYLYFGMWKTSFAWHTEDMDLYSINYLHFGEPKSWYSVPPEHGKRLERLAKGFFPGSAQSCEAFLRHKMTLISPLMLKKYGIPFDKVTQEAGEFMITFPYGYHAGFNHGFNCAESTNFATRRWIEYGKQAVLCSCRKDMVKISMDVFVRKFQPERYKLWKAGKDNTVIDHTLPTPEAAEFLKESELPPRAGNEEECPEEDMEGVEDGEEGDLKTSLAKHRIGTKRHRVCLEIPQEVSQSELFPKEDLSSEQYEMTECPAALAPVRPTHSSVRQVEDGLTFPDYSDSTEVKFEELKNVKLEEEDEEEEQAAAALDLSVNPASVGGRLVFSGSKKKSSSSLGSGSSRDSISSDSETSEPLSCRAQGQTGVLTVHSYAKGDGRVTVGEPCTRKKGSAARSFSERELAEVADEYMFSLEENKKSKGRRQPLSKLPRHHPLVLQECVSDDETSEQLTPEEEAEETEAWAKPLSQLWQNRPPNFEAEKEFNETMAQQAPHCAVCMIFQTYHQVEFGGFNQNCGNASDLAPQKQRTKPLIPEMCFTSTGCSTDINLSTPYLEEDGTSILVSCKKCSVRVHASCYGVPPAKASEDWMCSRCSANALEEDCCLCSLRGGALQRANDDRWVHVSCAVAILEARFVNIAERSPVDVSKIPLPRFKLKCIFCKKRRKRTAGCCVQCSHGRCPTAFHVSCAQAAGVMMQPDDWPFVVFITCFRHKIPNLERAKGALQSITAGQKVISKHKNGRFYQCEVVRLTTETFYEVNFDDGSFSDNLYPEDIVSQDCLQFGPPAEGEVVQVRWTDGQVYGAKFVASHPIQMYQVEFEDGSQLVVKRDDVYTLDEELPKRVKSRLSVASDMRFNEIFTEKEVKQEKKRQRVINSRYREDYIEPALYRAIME
Chain of HDAC8 (Q9BY41 whole entry, species assumed): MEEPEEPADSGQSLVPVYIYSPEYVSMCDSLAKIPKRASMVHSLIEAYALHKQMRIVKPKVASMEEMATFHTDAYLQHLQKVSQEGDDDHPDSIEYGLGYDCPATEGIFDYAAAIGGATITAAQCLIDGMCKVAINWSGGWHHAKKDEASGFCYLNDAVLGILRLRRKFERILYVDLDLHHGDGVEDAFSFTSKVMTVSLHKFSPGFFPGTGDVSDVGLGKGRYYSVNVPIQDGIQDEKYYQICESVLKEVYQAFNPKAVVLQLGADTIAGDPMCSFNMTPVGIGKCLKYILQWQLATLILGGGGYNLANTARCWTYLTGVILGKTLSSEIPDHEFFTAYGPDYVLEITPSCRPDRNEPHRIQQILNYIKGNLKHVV
Chain of CBP (Q92793 1081-1197 limits assumed): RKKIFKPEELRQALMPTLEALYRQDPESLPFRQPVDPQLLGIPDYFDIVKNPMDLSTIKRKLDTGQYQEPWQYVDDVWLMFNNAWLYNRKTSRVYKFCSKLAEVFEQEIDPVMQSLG
Chain of JMJD2B (O94953 whole entry, species assumed): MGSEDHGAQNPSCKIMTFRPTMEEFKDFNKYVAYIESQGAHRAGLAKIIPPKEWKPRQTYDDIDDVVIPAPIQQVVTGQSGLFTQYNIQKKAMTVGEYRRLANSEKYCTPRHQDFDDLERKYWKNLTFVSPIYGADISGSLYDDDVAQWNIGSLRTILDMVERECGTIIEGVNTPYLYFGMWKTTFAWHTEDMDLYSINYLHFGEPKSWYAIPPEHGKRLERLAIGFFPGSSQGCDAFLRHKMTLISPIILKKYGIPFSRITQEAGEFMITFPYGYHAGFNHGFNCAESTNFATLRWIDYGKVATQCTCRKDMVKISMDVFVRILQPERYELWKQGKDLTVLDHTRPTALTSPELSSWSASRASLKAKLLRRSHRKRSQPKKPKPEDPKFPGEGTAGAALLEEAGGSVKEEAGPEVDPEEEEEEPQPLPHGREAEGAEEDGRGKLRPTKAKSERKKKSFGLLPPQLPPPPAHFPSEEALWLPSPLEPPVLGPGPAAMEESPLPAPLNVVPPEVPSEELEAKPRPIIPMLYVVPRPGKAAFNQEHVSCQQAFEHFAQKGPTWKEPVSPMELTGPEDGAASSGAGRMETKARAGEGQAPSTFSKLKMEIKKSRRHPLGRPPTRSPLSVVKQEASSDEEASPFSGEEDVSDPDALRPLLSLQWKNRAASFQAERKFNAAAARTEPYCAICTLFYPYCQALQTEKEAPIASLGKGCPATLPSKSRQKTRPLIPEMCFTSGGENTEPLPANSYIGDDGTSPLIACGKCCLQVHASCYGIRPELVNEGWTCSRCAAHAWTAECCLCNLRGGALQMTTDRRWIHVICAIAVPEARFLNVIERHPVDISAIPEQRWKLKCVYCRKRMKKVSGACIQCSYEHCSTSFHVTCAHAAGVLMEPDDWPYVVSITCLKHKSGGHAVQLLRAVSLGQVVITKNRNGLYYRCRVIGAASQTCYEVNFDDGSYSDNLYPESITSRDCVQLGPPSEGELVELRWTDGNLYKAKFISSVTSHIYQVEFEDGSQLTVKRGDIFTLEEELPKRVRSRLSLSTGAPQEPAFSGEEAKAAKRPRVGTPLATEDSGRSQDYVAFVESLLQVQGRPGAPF
Chain of yeast Hmt1p (P38074 whole entry): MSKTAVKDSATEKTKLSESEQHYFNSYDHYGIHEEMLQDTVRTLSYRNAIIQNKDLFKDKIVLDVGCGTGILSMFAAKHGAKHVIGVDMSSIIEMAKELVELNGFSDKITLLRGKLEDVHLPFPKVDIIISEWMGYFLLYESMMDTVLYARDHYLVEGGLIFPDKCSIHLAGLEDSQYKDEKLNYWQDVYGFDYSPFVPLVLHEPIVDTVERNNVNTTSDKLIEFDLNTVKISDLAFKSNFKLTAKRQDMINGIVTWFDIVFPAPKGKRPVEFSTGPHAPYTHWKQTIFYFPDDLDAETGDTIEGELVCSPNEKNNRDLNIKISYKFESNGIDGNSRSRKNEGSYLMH

In the case of `Clc1ccc(N/N=C(\c2ccccc2)c2ccccn2)nc1` [JIB-04], the IC50 [1] is listed as 435 nM and the IC50 [2] is listed as 445 nM.

For `O=C(/C=C/c1cccc(C(=O)NO)c1)NO` [CBHA], the neuroblastoma tumor growth [3] is listed as “completely suppresses neuroblastoma tumor growth in SCID”.

For `C#CCCCC(=O)Nc1ccc(C(=O)c2ccc(NC(=O)CCCCCCC(=O)NO)cc2)cc1` [SAHA-BPyne], the IC50 [4] is listed as roughly 3000 nM.

In the case of `COc1cc([C@@H]2c3cc4c(cc3[C@@H](O[C@@H]3O[C@@H]5CO[C@@H](C)O[C@H]5[C@H](O)[C@H]3O)[C@H]3COC(=O)[C@H]23)OCO4)cc(OC)c1O` [Etoposide], the IC50 ([5]; cell-based cytotoxicity assay) is listed as 5.14 nM and the IC50 [6] is listed as 2480 nM.

In the case of `O=C(CCCCCCC(=O)Nc1ccc(I)cc1)NO` [4-iodo-SAHA], the EC50 [7] is given as 120 nM, the EC50 ([8]; proliferation) is given as 950 nM and the EC50 [9] is given as 1100 nM.

For `COC(=O)c1ccc(N2CCN(C)CC2)c(NC(=O)c2cccc(OC)c2)c1` [WDR5-0103], the IC50 [10] is given as 39 µM and the Kd [11] is given as 450 nM.

For `CCCc1cc(C)[nH]c(=O)c1CNC(=O)c1cc(-c2ccnc(N3CCN(C)CC3)c2)cc2c1cnn2C(C)C` [GSK343], the IC50 [12] is listed as 4 nM and the IC50 [13] is listed as 174 nM.

In the case of `CCCc1cc(C)[nH]c(=O)c1CNC(=O)c1cc(-c2ccc(N3CCN(C(C)C)CC3)nc2)cc2c1cnn2C(C)C` [UNC1999], the IC50 [12] is listed as 2 nM and the IC50 [14] is listed as 124 nM.

For `O=C(/C=C/c1ccc(O)cc1)c1ccc(O)cc1O` [Isoliquiritigenin], the “concentration required to double activity” value [15] is listed as 1.8 μM in mouse hepatoma cells.

For `Cc1cc(Cl)ccc1OCCCC(=O)NO` [Droxinostat], the IC50 [16] is given as 1460 nM.

In the case of `O=C(NCc1ccccc1)c1c(/N=C/c2c(O)ccc3ccccc23)sc2c1CCCC2` [JGB1741], the IC50 [17] is listed as 512 nM and the IC50 [18] is listed as 15 µM.

In the case of `COc1cc2c(NC3CCN(C(C)C)CC3)nc(N3CCC(F)(F)CC3)nc2cc1OCCCN1CCCC1` [UNC0642], the Ki [19] is given as 3.7 nM, the IC50 [20] is given as 40 nM and the IC50 [21] is given as 110 nM.

For `Cc1cc(C)c(CNC(=O)c2cc(-c3ccc(CN4CCOCC4)cc3)cc3c2cnn3C2CCCC2)c(=O)[nH]1` [EPZ005687], the IC50 [22] is listed as 80 nM.

For `O=c1[nH]c(=S)[nH]c(-c2ccccc2)c1Cc1c(O)ccc2ccccc12` [SIRT1/2 Inhibitor IV], the IC50 [23] is given as greater than 300 µM.

In the case of `O=C(O)CCNc1cc(N2CCc3ccccc3CC2)nc(-c2ccccn2)n1` [GSK-J1 (sodium salt)], the IC50 [24] is given as 56 µM.

For `Cc1sc2c(c1C)C(c1ccc(Cl)cc1)=N[C@@H](CC(N)=O)c1nnc(C)n1-2` [CPI-203], the IC50 [25] is given as 37 nM.

In the case of `CCC(=O)N1CCOc2c(cc(-c3ccc(OC)c(OC)c3)cc2OC[C@H]2CCCN(C)C2)C1` [I-CBP112 (hydrochloride)], the Kd [26] is given as 142 nM.

For `O=C(Nc1ccc(Cl)cc1)C1CCCN(C(=O)c2cc(C(F)(F)F)cc(C(F)(F)F)c2)C1` (centres unmarked) [CCG-100602], the IC50 [27] is listed as 9.8 µM.

In the case of `COc1cc2c(NC3CCN(C4CCCCC4)CC3)nc(N3CCCN(C(C)C)CC3)nc2cc1OCCCN1CCCCC1` [UNC0646], the IC50 [28] is given as 15 nM and the IC50 [21] is given as 26 nM.

For `Cc1cc(Nc2nn(-c3ccccc3)c(=O)c3ccccc23)n[nH]1` [Phthalazinone pyrazole], the IC50 [29] is listed as 7.8 µM, the IC50 [30] is listed as 2900 nM and the IC50 [5] is listed as 1600 nM.

In the case of `CC(C)(C)OC(=O)CN(Cc1ccc(Cl)cc1)Cc1ccc([N+](=O)[O-])s1` [GSK4112], the EC50 [31] is listed as 400 nM.

In the case of `NC(=O)[C@H](CCCN=C(N)CF)NC(=O)c1ccccc1` [F-Amidine (trifluoroacetate salt), F-Amidine], the IC50 ([8]; cytotoxic) is given as 1000 nM, the IC50 [32] is given as 29.5 µM and the IC50 [33] is given as 500 nM. The IC50 [5] was 500 nM and the IC50 [34] was 350 µM.

For `O=C(Nc1ccc2c(O)cc(S(=O)(=O)O)cc2c1)Nc1ccc2c(O)cc(S(=O)(=O)O)cc2c1` [AMI-1 (sodium salt)], the IC50 [35] is given as 3000 nM and the IC50 [36] is given as 5 µM.
